Several values for one entry are separate records, joined by “and”; a condition that tells them apart may be missing. Equal entries are not always repeated.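 Assay format: 96-well plates, 48-hour exposure. GI50 = concentration required for 50% inhibition of growth. TGI is the concentration that stops growth completely.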
Columns and labels:
Assay in all cases: DTP human tumour cell line panel, 48 h
[1] = test system: BT-549 breast
[2] = test system: CAKI-1 renal
[3] = test system: HOP-92 NSCLC
[4] = test system: MOLT-4 leukemia
[5] = test system: NCI-H226 lung
[6] = test system: NCI-H23 lung
[7] = test system: OVCAR-5 ovarian
[8] = test system: SK-MEL-28 melanoma
[9] = test system: SK-MEL-5 melanoma
[10] = test system: SR leukemia

Structure (SMILES)	GI50 [1]	TGI [1]	GI50 [2]	TGI [2]	GI50 [3]	TGI [3]	GI50 [4]	TGI [4]	GI50 [5]	TGI [5]	GI50 [6]	TGI [6]	GI50 [7]	TGI [7]	GI50 [8]	TGI [8]	GI50 [9]	TGI [9]	GI50 [10]	TGI [10]
CC(=O)c1cccc(-c2cccc(-c3ccn(CCN4CCOCC4)n3)c2)c1	> 20 µM	> 20 µM	> 20 µM	> 20 µM	16.2 µM	> 20 µM	> 20 µM	> 20 µM	> 20 µM	> 20 µM	> 20 µM	> 20 µM	> 20 µM	> 20 µM	> 20 µM	> 20 µM	11.6 µM	> 20 µM	> 20 µM	> 20 µM
CC(=O)c1cc(-c2ccccc2N)n(-c2ccc3c(c2)OCO3)c1C	0.575 µM	9.9 µM	0.406 µM	83.7 µM	0.149 µM	24.8 µM	0.38 µM	> 100 µM	0.239 µM	6.86 µM	0.218 µM	97.6 µM	0.268 µM	> 100 µM	2.34 µM	> 73.9 µM	0.196 µM	1.59 µM	0.223 µM	19.1 µM
COC(=O)[C@H]1[C@H]2C[C@@H]3c4[nH]c5cc(OC)ccc5c4CCN3C[C@H]2C[C@@H](OC(=O)/C=C/c2cc(OC)c(OC)c(OC)c2)[C@@H]1OC	11.6 µM	24.6 µM	3.97 µM	26.8 µM	2.85 µM	17.4 µM	3.33 µM	> 100 µM	26.7 µM	> 100 µM	17.6 µM	53 µM	19.3 µM	56.7 µM	12.6 µM	28 µM	3.66 µM	15.5 µM	2.48 µM	6.63 µM
Cc1nn(CNc2ccccc2C(F)(F)F)c(=S)n1/N=C/c1ccc(F)cc1	> 100 µM	> 100 µM	> 100 µM	> 100 µM	34.8 µM	> 100 µM	46.6 µM	> 100 µM	43.7 µM	> 100 µM	> 100 µM	> 100 µM	73 µM	> 100 µM	50 µM	> 100 µM	> 100 µM	> 100 µM	12.3 µM	51.6 µM
COc1cc2c(c(OC)c1OC)-c1ccc(O)c(=O)cc1[C@@H](NC(C)=O)CC2	24 µM	> 100 µM and 39.4 µM	4.91 µM	> 100 µM and 37.5 µM	9.92 µM	> 100 µM and 58.3 µM	4.66 µM	45.8 µM and 34.2 µM	10.5 µM	80 µM and 44 µM		39.5 µM	22.7 µM	> 100 µM	7.48 µM	> 100 µM		32.2 µM and 20.5 µM	4.74 µM	97.9 µM and 18.1 µM
COc1cc2c3c(c1OC)C1(C=CC(=O)C=C1)CC3NCC2 (stereo not drawn)		> 100 µM		> 100 µM		> 100 µM		> 100 µM		> 100 µM		> 100 µM		> 100 µM		> 100 µM		> 100 µM		> 100 µM
CCn1c(=O)c2c3ccc(OC(C)=O)cc3[nH]c2c2ccc(OC(C)=O)cc21		> 100 µM		> 100 µM		> 100 µM		74.5 µM		> 100 µM		> 100 µM		> 100 µM		> 100 µM		> 100 µM		> 100 µM
CCCCCCNC(=O)Oc1ccc(/C(=C(/C)Cc2ccc(OC)cc2)c2ccc(OCCN(C)C)cc2)cc1	5.11 µM	9.86 µM	5.39 µM	9.95 µM	3.49 µM	7.9 µM	5.23 µM	11.5 µM	6.18 µM	11.9 µM	5.28 µM	10.5 µM	4.58 µM	8.99 µM	3.88 µM	8.06 µM	5.46 µM	10.2 µM	1.32 µM	6.55 µM
COc1ccc([C@@H](O)c2cc(-c3ncnc4cc(N5CCOCC5)ccc34)c(F)cc2Cl)nn1	1.44 µM	20.3 µM	1.99 µM	> 100 µM	0.382 µM	> 100 µM	1.08 µM	41.1 µM	3.82 µM	60.4 µM	8 µM	94.6 µM	7.2 µM	> 100 µM	2.07 µM	38.1 µM	1.99 µM	8.1 µM	7.06 µM	34.6 µM
N=c1ccc2nc3c(cc(N)c4ccccc43)oc-2c1	0.268 µM	1.27 µM	0.444 µM	2.32 µM	1.18 µM	3.6 µM	0.287 µM	1.05 µM	0.386 µM	1.63 µM	0.179 µM	0.523 µM	0.348 µM	1.2 µM	1.19 µM	2.54 µM	0.144 µM	0.277 µM	0.285 µM	1.29 µM
CN(C)CCCc1c2ccccc2nc2ccc(Cl)cc12		38.2 µM		31.4 µM		23.1 µM		44.5 µM		40.7 µM		84.8 µM		33.3 µM		37.3 µM		28.2 µM		44.1 µM
Cc1ccc2sc3ccc(N)cc3c(=O)c2c1		> 100 µM		> 100 µM		98.3 µM		> 100 µM		> 100 µM		> 100 µM		> 100 µM		> 100 µM		> 100 µM		> 100 µM
CC12CC=CCC1CCC1C2CCC2(C)C(c3ccc(=O)oc3)CCC12O (stereo not drawn)	0.04 µM	0.209 µM	0.135 µM	0.448 µM	0.148 µM	0.756 µM	0.0292 µM	0.113 µM	0.219 µM	0.595 µM	0.0548 µM	0.33 µM	0.186 µM	0.482 µM	0.3 µM	1.37 µM	0.0633 µM	0.312 µM	0.03 µM	0.123 µM

— PubChem BioAssay (NCI)
